Measured values from ChEMBL document CHEMBL5696441 (Nat Chem Biol, 2011).

Tests used:
[1] = biological target: Macrophage colony-stimulating factor 1 receptor (Homo sapiens) (UniProt P07333); test: Inhibition of CSF1R (unknown origin) assessed as remaining activity at 1 uM by Kinome scan method relative to control
[2] = Anti-inflammatory activity against human derived high respond PBMC cells assessed as inhibition in stimulated IL-6 cytokine release incubated for 2 hrs in the presence of LPS/SEB/aCD28 by Luminex based sandwich immunoassay; assay type: functional, cell-based
[3] = biological target: Ephrin type-A receptor 8 (Homo sapiens) (UniProt P29322); test: Inhibition of human EPHA8 assessed as residual activity at 1 uM using polyEy as substrate in presence of 33P-ATP by ProQinase assay relative to control
Chain of Ephrin type-A receptor 8 (Homo sapiens) (P29322 whole entry): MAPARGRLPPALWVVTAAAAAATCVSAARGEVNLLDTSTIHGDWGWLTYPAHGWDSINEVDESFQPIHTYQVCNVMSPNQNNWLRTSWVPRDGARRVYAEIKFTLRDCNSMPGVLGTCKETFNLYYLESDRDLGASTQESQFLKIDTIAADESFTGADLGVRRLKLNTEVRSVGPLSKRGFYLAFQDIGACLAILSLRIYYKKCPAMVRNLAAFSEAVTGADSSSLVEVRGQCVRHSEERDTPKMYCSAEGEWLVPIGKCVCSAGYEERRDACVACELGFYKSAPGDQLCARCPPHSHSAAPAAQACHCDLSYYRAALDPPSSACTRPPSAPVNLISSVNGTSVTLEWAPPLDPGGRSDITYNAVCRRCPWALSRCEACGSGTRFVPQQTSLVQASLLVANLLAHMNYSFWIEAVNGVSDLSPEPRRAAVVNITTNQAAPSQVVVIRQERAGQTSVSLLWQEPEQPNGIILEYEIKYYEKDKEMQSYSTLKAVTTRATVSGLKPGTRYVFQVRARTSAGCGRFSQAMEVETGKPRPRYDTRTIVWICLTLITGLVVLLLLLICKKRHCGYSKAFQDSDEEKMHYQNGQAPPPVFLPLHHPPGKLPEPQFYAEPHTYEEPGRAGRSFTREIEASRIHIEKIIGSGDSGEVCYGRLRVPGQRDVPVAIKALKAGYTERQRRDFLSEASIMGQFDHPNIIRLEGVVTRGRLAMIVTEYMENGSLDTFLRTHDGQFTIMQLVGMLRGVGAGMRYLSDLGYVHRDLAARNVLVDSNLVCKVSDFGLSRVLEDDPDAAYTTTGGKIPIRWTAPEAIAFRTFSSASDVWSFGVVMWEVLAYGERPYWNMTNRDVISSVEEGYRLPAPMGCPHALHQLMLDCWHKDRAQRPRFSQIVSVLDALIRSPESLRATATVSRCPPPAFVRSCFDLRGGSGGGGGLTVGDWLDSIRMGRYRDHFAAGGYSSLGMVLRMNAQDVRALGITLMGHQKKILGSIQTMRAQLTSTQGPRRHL

[4] = biological target: Mitogen-activated protein kinase 9 (Homo sapiens) (UniProt P45984); test: Inhibition of human JNK2 assessed as residual activity at 1 uM using ATF2 as substrate in presence of 33P-ATP by ProQinase assay relative to control
Chain of Mitogen-activated protein kinase 9 (Homo sapiens) (P45984 whole entry, looked up): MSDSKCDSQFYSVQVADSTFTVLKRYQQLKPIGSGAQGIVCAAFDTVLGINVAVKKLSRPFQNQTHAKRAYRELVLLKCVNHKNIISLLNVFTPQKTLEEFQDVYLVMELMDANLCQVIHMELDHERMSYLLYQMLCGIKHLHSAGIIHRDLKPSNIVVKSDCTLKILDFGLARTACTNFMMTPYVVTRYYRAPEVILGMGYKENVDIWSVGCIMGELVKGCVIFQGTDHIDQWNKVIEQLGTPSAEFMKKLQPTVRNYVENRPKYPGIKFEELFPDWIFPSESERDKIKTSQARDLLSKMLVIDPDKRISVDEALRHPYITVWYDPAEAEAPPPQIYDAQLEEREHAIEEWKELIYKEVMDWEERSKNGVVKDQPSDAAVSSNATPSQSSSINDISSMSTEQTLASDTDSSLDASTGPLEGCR

[5] = biological target: Ribosomal protein S6 kinase alpha-1 (Homo sapiens) (UniProt Q15418); test: Inhibition of human RPS6KA1 assessed as residual activity at 1 uM using RBER-CHKtide as substrate in presence of 33P-ATP by ProQinase assay relative to control
Chain of Ribosomal protein S6 kinase alpha-1 (Homo sapiens) (Q15418 whole entry, the tested form may be a part): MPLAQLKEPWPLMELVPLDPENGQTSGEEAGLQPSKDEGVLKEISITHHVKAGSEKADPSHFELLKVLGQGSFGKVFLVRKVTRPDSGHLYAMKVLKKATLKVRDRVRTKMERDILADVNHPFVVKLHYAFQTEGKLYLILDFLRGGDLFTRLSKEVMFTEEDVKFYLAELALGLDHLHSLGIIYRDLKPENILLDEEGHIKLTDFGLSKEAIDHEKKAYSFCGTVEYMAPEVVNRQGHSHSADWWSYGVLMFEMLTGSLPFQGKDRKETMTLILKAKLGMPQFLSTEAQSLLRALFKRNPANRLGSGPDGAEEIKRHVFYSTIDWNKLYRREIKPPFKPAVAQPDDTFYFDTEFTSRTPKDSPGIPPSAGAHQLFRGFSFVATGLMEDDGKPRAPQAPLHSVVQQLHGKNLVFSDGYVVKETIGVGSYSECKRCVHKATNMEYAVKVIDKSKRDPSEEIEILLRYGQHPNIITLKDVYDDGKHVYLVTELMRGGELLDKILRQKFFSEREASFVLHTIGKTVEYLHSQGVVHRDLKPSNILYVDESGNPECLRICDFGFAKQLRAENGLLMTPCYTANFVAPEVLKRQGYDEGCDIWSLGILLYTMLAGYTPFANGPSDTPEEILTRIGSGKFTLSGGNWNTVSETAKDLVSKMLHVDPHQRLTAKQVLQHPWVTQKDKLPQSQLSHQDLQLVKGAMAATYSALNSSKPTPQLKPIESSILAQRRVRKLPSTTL

[6] = biological target: Serine/threonine-protein kinase PLK1 (Homo sapiens) (UniProt P53350); test: Inhibition of human PLK1 assessed as residual activity at 1 uM using RBER-CHKtide as substrate in presence of 33P-ATP by ProQinase assay relative to control
[7] = biological target: Serine/threonine-protein kinase TBK1 (Homo sapiens) (UniProt Q9UHD2); test: Inhibition of human TBK1 assessed as residual activity at 1 uM using casein as substrate in presence of 33P-ATP by ProQinase assay relative to control
[8] = biological target: STE20/SPS1-related proline-alanine-rich protein kinase (Homo sapiens) (UniProt Q9UEW8); test: Inhibition of human STK39 assessed as residual activity at 1 uM using RBER-CDC25tide as substrate in presence of 33P-ATP by ProQinase assay relative to control
[9] = biological target: Serine/threonine-protein kinase 24 (Homo sapiens) (UniProt Q9Y6E0); test: Inhibition of MST3 (unknown origin) assessed as remaining activity at 1 uM by Kinome scan method relative to control
Chain of Serine/threonine-protein kinase 24 (Homo sapiens) (Q9Y6E0 whole entry, looked up): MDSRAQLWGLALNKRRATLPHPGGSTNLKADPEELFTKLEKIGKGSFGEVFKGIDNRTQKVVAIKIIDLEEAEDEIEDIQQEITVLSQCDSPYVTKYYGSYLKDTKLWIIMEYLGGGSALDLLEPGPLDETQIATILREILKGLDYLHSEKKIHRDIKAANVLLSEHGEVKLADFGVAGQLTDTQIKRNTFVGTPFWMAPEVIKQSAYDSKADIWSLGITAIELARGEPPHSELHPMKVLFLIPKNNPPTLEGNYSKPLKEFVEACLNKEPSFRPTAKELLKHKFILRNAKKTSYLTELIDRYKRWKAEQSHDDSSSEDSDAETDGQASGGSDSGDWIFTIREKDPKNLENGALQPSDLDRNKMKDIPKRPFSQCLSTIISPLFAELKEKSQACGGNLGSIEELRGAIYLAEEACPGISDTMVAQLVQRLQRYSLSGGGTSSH

[10] = biological target: Tyrosine-protein kinase ABL2 (Homo sapiens) (UniProt P42684); test: Inhibition of human ABL2 assessed as residual activity at 1 uM using Poly(Ala,Glu,Lys,Tyr)6:2:5:1 as substrate in presence of 33P-ATP by ProQinase assay relative to control
Chain of Tyrosine-protein kinase ABL2 (Homo sapiens) (P42684 whole entry): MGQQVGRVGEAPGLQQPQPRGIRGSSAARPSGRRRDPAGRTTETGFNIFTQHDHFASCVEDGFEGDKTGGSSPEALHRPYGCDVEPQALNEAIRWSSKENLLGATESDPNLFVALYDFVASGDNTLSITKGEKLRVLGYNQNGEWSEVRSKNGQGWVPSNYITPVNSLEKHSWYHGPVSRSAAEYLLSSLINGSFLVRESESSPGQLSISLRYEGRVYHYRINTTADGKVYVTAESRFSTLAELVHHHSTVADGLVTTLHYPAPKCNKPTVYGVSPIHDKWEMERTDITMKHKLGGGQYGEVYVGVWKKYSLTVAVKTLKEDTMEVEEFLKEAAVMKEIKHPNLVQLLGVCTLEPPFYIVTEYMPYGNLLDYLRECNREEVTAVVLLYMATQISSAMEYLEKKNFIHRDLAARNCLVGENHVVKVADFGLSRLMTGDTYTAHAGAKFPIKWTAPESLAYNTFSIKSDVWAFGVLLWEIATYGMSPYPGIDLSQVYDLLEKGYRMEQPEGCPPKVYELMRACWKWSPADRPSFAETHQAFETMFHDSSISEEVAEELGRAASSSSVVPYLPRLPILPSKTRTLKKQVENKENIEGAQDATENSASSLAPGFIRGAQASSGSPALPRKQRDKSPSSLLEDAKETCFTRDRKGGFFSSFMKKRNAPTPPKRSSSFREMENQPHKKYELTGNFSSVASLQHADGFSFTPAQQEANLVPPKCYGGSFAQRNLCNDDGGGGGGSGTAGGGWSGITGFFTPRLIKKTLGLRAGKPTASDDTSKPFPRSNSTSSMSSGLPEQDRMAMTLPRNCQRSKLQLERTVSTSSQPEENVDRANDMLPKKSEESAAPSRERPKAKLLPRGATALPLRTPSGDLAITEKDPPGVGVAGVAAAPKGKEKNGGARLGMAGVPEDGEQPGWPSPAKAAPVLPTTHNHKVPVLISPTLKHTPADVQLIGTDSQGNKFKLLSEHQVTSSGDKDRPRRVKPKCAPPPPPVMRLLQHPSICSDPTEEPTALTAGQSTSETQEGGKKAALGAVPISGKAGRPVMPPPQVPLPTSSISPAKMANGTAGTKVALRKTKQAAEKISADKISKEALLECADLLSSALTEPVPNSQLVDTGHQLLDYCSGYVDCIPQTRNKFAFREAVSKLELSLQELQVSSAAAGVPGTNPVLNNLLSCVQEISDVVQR

[11] = biological target: Mitogen-activated protein kinase kinase kinase 1 (Homo sapiens) (UniProt Q13233); test: Inhibition of MAP3K1 (unknown origin) assessed as remaining activity at 1 uM by Kinome scan method relative to control
[12] = biological target: Fibroblast growth factor receptor 3 (Homo sapiens) (UniProt P22607); test: Inhibition of human FGFR3 assessed as residual activity at 1 uM using PolyEY as substrate in presence of 33P-ATP by ProQinase assay relative to control
[13] = biological target: CDK1/Cyclin E (Homo sapiens) (UniProt P06493+P24864); test: Inhibition of human CDK1/Cyclin E1 assessed as residual activity at 1 uM using RBER-CHKtide as substrate in presence of 33P-ATP by ProQinase assay relative to control; assay type: protein-complex assay
[14] = biological target: Platelet-derived growth factor receptor beta (Homo sapiens) (UniProt P09619); test: Inhibition of human PDGFRbeta assessed as residual activity at 1 uM using poly(Ala,Glu,Lys,Tyr) as substrate in presence of 33P-ATP by ProQinase assay relative to control
Chain of Platelet-derived growth factor receptor beta (Homo sapiens) (P09619 whole entry): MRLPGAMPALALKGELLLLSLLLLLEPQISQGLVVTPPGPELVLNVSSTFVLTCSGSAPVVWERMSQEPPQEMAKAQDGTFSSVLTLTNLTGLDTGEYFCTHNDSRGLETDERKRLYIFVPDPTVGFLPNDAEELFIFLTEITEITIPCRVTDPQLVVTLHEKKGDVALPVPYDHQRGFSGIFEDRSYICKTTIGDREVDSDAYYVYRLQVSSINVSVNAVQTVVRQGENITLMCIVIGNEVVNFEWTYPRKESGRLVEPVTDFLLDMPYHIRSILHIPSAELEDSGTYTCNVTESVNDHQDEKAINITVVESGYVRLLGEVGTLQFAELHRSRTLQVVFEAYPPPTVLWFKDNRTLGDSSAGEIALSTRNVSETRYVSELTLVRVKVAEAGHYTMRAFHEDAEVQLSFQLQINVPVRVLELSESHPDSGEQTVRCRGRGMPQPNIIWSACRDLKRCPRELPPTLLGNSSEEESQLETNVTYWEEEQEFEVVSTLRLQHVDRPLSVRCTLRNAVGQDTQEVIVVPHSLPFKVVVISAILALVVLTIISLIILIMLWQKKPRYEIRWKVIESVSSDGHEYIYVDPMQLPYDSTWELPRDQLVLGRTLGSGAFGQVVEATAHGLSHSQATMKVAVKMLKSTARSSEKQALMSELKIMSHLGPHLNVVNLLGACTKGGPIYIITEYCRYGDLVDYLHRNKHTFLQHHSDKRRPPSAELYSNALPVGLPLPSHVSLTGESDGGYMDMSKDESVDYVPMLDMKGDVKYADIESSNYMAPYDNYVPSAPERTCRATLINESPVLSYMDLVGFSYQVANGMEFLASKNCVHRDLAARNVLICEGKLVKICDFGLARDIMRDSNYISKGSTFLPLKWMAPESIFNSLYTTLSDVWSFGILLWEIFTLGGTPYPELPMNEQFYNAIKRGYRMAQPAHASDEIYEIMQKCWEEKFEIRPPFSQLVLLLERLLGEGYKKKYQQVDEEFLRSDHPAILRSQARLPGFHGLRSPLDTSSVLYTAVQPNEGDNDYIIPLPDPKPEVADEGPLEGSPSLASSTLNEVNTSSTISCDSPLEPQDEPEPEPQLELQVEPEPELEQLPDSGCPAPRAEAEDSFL

[15] = biological target: Mitogen-activated protein kinase kinase kinase kinase 5 (Homo sapiens) (UniProt Q9Y4K4); test: Inhibition of human MAP4K5 assessed as residual activity at 1 uM using casein as substrate in presence of 33P-ATP by ProQinase assay relative to control
[16] = biological target: Mitogen-activated protein kinase 14 (Homo sapiens) (UniProt Q16539); test: Inhibition of human p38alpha assessed as residual activity at 1 uM using ATF2 as substrate in presence of 33P-ATP by ProQinase assay relative to control
[17] = biological target: Platelet-derived growth factor receptor beta (Homo sapiens) (UniProt P09619); test: Inhibition of PDGFRbeta (unknown origin) assessed as remaining activity at 1 uM by Kinome scan method relative to control
[18] = tested on: Hepatocyte growth factor receptor (Homo sapiens), P08581 [Y1230D]; test: Inhibition of human MET Y1230D mutant assessed as residual activity at 1 uM using poly(Ala,Glu,Lys,Tyr)6:2:5:1 as substrate in presence of 33P-ATP by ProQinase assay relative to control
[19] = biological target: Tyrosine-protein kinase ABL1 (Homo sapiens) (UniProt P00519); test: Inhibition of human ABL1 assessed as residual activity at 1 uM using poly(Ala,Glu,Lys,Tyr)6:2:5:1 as substrate in presence of 33P-ATP by ProQinase assay relative to control
[20] = biological target: Inhibitor of nuclear factor kappa-B kinase subunit epsilon (Homo sapiens) (UniProt Q14164); test: Inhibition of IKK-epsilon (unknown origin) assessed as remaining activity at 1 uM by Kinome scan method relative to control
[21] = biological target: Death-associated protein kinase 3 (Homo sapiens) (UniProt O43293); test: Inhibition of human DAPK3 assessed as residual activity at 1 uM using RBER-GSK3 as substrate in presence of 33P-ATP by ProQinase assay relative to control
[22] = biological target: Ribosomal protein S6 kinase alpha-1 (Homo sapiens) (UniProt Q15418); test: Inhibition of N-terminal kinase domain RPS6KA1 (unknown origin) assessed as remaining activity at 1 uM by Kinome scan method relative to control

O=C1c2ccc(Nc3ccc(F)cc3F)cc2CCc2ccc(OC[C@H](O)CO)cc21 [Skepinone-L]
Activity [1]: 92%
IC50 [2]: 650 nM
Activity [3]: 95%
Activity [4]: 58%
Activity [5]: 89%
Activity [6]: 97%
Activity [7]: 87%
Activity [8]: 53%
Activity [9]: 100%
Activity [10]: 99%
Activity [11]: 100%
Activity [12]: 102%
Activity [13]: 87%
Activity [14]: 96%
Activity [15]: 84%
Activity [16]: 0%
Activity [17]: 87%
Activity [18]: 95%
Activity [19]: 95%
Activity [20]: 100%
Activity [21]: 89%
Activity [22]: 100%
